Assay results: paper PMC13198257, “An aerosolized dual-action autotaxin inhibitor-PPARγ agonist for the treatment of pulmonary fibrosis” (Cell Reports Medicine, 2026)

Tested on: lung gene expression
Experiment: RNA sequencing of lung tissue (BLM/EL244 vs BLM)
Assay type: in vivo, mouse
Conditions: lung tissue of BLM-treated mice, BLM/EL244 vs BLM
Method: RNA quality was assessed using an Agilent TapeStation 4150 with the High Sensitivity […] ScreenTape (Agilent), according to the manufacturer’s protocols. For library preparation, the QuantSeq 3’mRNA-Seq Library Prep Kit (Lexogen) was used according to manufacturer’s instructions. Briefly, 500 ng of RNA from each sample was used for first-strand synthesis, followed by RNA template removal, and second-strand synthesis initiated by random primers. In-line barcodes were introduced at this step, and this was followed by magnetic bead-based purification. The resulting libraries were amplified for 15 cycles and re-purified, with quantity and quality assessed on a Qubit 4 Fluorometer with the Invitrogen Qubit dsDNA HS Assay and an Agilent Tapestation 4150 with the High Sensitivity D1000 assay kit, respectively. The quantified libraries were pooled equimolarly; 50ng of total library mix was used for Adapter Conversion PCR Amplification using the Universal Library Conversion Kit (App-A), Version: V1.0 (MGI Tech Co., Ltd.), according to the manufacturer’s instructions.
The quantity and quality of the purified adapter conversion PCR (AC-PCR) product were evaluated on a Qubit 4 Fluorometer with the Invitrogen Qubit dsDNA HS Assay and on an Agilent Tapestation 4150 with the High Sensitivity D1000 assay kit, respectively. This was followed by DNA denaturation, Single-Strand Circularisation, Enzymatic Digestion, Enzymatic Digestion Product Cleanup and Quality Control steps on 1 pmol of AC-PCR product, according to the Universal Library Conversion Kit (App-A) User Manual (Version: A3).
Finally, 60 fmol of ssCirDNA were used for DNB preparation and sequencing on a DNBSEQ-G400 platform at the BSRC Alexander Fleming Genomics Facility, using a G400 App-A FCS SE100 High-throughput Sequencing Set (MGI Tech Co., Ltd.), according to the manufacturer’s instructions.
Alignment of the FASTQ files was performed against the mouse genome build mm10 using a custom Bash script.[143] Read counting on the 3′ UTRs and differential expression analysis were conducted using the metaseqR2 bioconductor package.[144] Genes corresponding to the following biotypes were excluded: polymorphic_pseudogene, processed_transcript, pseudogene, IG_V_pseudogene, misc_RNA, IG_C_gene, IG_J_gene, IG_D_gene, IG_LV_gene, TR_V_gene, TR_V_pseudogene, TEC, and processed_pseudogene. Gene counts were normalized with DESEQ[145] through metaseqR2. Genes with more than 10 counts in at least 50% of the samples were kept for further processing. For differential expression analysis, the PANDORA algorithm[146] was used to estimate a meta p-value integrating the results from the DESEQ, DESEQ2,[147] edgeR,[148] limma,[149] NBPSeq,[150] and NOISeq[151] algorithms. All additional parameters were set to default values.
Pathway enrichment analysis was performed for the Gene Ontology Biological process (BP) and Molecular Function (MF) terms through GeneCodis 4.[152] The volcano plots, scatterplots, Venn diagrams, and dot plots were generated using the ggplot2 Bioconductor package.

SMILES: O=C1NC(=O)C(Cc2ccc(OCCC3CCN(C(=O)OCc4cc(Cl)cc(Cl)c4)CC3)cc2)S1 (centres unmarked) [EL244, 3,5-dichlorobenzyl 4-(2-(4-((2,4-dioxothiazolidin-5-yl)methyl)phenoxy)ethyl)piperidine-1-carboxylate]
- Ces2g log2 nFC: 0.83
- Ces2g nFC: 1.78
- Cfap43 log2 nFC: 0.88
- Cfap43 nFC: 1.84
- Cfap100 log2 nFC: 0.89
- Cfap100 nFC: 1.85
- Cfap206 log2 nFC: 0.77
- Cfap206 nFC: 1.70
- Cftr log2 nFC: 0.96
- Cftr nFC: 1.95
- Cldn5 log2 nFC: 0.97
- Cldn5 nFC: 1.96
- Cpm log2 nFC: 0.68
- Cpm nFC: 1.60
- Crebl2 log2 nFC: 0.79
- Crebl2 nFC: 1.73
- Crem log2 nFC: 0.68
- Crem nFC: 1.60
- Crispld2 log2 nFC: 0.80
- Crispld2 nFC: 1.74
- Cry2 log2 nFC: 0.70
- Cry2 nFC: 1.62
- Csrnp1 log2 nFC: 0.83
- Csrnp1 nFC: 1.78
- Ctla2a log2 nFC: 0.72
- Ctla2a nFC: 1.65
- Ctla2b log2 nFC: 0.96
- Ctla2b nFC: 1.94
- Cyp2d22 log2 nFC: 0.97
- Cyp2d22 nFC: 1.97
- Cyp2f2 log2 nFC: 0.79
- Cyp2f2 nFC: 1.72
- Dgkh log2 nFC: 0.84
- Dgkh nFC: 1.79
- Dnali1 log2 nFC: 0.73
- Dnali1 nFC: 1.66
- Dok4 log2 nFC: 0.74
- Dok4 nFC: 1.67
- Dpep1 log2 nFC: 0.71
- Dpep1 nFC: 1.63
- Dusp1 log2 nFC: 0.86
- Dusp1 nFC: 1.82
- Ednrb log2 nFC: 0.97
- Ednrb nFC: 1.96
- Elmod1 log2 nFC: 0.89
- Elmod1 nFC: 1.86
- Eng log2 nFC: 0.81
- Eng nFC: 1.76
- Errfi1 log2 nFC: 0.95
- Errfi1 nFC: 1.93
- Fabp3 log2 nFC: 0.98
- Fabp3 nFC: 1.97
- Fmo1 log2 nFC: 0.86
- Fmo1 nFC: 1.81
- Fmo2 log2 nFC: 1.00
- Fmo2 nFC: 2.00
- Fos log2 nFC: 1.02
- Fos nFC: 2.03
- Fxyd1 log2 nFC: 0.80
- Fxyd1 nFC: 1.75
- Fzd4 log2 nFC: 0.69
- Fzd4 nFC: 1.61
- Galnt15 log2 nFC: 0.89
- Galnt15 nFC: 1.85
- Gm26236 log2 nFC: 1.03
- Gm26236 nFC: 2.04
- Gm47291 log2 nFC: 0.98
- Gm47291 nFC: 1.98
- Gm49391 log2 nFC: 0.96
- Gm49391 nFC: 1.95
- Gnao1 log2 nFC: 0.85
- Gnao1 nFC: 1.80
- Gpm6a log2 nFC: 0.83
- Gpm6a nFC: 1.78
- Gpr155 log2 nFC: 0.76
- Gpr155 nFC: 1.69
- Gprasp1 log2 nFC: 0.72
- Gprasp1 nFC: 1.64
- Gpt log2 nFC: 0.73
- Gpt nFC: 1.66
- Gsn log2 nFC: 1.06
- Gsn nFC: 2.08
- Gstm1 log2 nFC: 0.75
- Gstm1 nFC: 1.68
- Hecw2 log2 nFC: 0.81
- Hecw2 nFC: 1.75
- Hlf log2 nFC: 0.89
- Hlf nFC: 1.86
- Igf1r log2 nFC: 0.70
- Igf1r nFC: 1.63
- Il6ra log2 nFC: 0.84
- Il6ra nFC: 1.79
- Iqca log2 nFC: 0.87
- Iqca nFC: 1.83
- Itga8 log2 nFC: 0.88
- Itga8 nFC: 1.85
- Itih4 log2 nFC: 0.88
- Itih4 nFC: 1.84
- Iyd log2 nFC: 1.04
- Iyd nFC: 2.05
- Jdp2 log2 nFC: 0.71
- Jdp2 nFC: 1.64
- Klf3 log2 nFC: 0.69
- Klf3 nFC: 1.62
- Klf4 log2 nFC: 0.72
- Klf4 nFC: 1.64
- Klf9 log2 nFC: 0.85
- Klf9 nFC: 1.80
- Klrd1 log2 nFC: 0.95
- Klrd1 nFC: 1.93
- Kndc1 log2 nFC: 1.05
- Kndc1 nFC: 2.07
- Krt23 log2 nFC: 0.69
- Krt23 nFC: 1.61
- Lncpint log2 nFC: 1.06
- Lncpint nFC: 2.08
- Lpin1 log2 nFC: 0.80
- Lpin1 nFC: 1.75
- Lrrc74b log2 nFC: 1.02
- Lrrc74b nFC: 2.03
- Ltbp4 log2 nFC: 0.81
- Ltbp4 nFC: 1.76
- Lyve1 log2 nFC: 0.96
- Lyve1 nFC: 1.94
- Map3k6 log2 nFC: 0.95
- Map3k6 nFC: 1.93
- Mapt log2 nFC: 0.89
- Mapt nFC: 1.85
- Mcf2l log2 nFC: 0.95
- Mcf2l nFC: 1.93
- Mettl7a1 log2 nFC: 0.80
- Mettl7a1 nFC: 1.75
- Mir29c log2 nFC: 0.89
- Mir29c nFC: 1.85
- Mir1668 log2 nFC: 0.75
- Mir1668 nFC: 1.69
- Mir6899 log2 nFC: 0.84
- Mir6899 nFC: 1.80
- Mtcl1 log2 nFC: 0.73
- Mtcl1 nFC: 1.66
- Ndrg2 log2 nFC: 0.88
- Ndrg2 nFC: 1.84
- Nek5 log2 nFC: 0.81
- Nek5 nFC: 1.76
- Nova2 log2 nFC: 0.90
- Nova2 nFC: 1.86
- Nr1d1 log2 nFC: 0.84
- Nr1d1 nFC: 1.79
- Nrgn log2 nFC: 1.04
- Nrgn nFC: 2.05
- Nrxn2 log2 nFC: 0.88
- Nrxn2 nFC: 1.84
- Ogn log2 nFC: 0.86
- Ogn nFC: 1.82
- Osgin1 log2 nFC: 0.74
- Osgin1 nFC: 1.68
- Pcolce2 log2 nFC: 0.98
- Pcolce2 nFC: 1.97
- Pcp4l1 log2 nFC: 0.75
- Pcp4l1 nFC: 1.68
- Phactr1 log2 nFC: 0.74
- Phactr1 nFC: 1.67
- Phf1 log2 nFC: 0.75
- Phf1 nFC: 1.68
- Pla2g1b log2 nFC: 0.79
- Pla2g1b nFC: 1.72
- Plxna2 log2 nFC: 0.78
- Plxna2 nFC: 1.72
- Ppargc1a log2 nFC: 0.86
- Ppargc1a nFC: 1.82
- Ppl log2 nFC: 0.87
- Ppl nFC: 1.83
- Prob1 log2 nFC: 0.76
- Prob1 nFC: 1.70
- Ptgfr log2 nFC: 0.93
- Ptgfr nFC: 1.90
- Pxdc1 log2 nFC: 0.83
- Pxdc1 nFC: 1.78
- Rapgef5 log2 nFC: 0.88
- Rapgef5 nFC: 1.84
- Rara log2 nFC: 0.73
- Rara nFC: 1.66
- Rgs9 log2 nFC: 1.01
- Rgs9 nFC: 2.02
- Rora log2 nFC: 0.80
- Rora nFC: 1.74
- S1pr4 log2 nFC: 0.94
- S1pr4 nFC: 1.91
- Scn3a log2 nFC: 0.75
- Scn3a nFC: 1.68
- Scube2 log2 nFC: 0.74
- Scube2 nFC: 1.68
- Sec14l3 log2 nFC: 0.69
- Sec14l3 nFC: 1.62
- Sec14l4 log2 nFC: 0.77
- Sec14l4 nFC: 1.70
- Sell log2 nFC: 1.03
- Sell nFC: 2.04
- Sema3g log2 nFC: 0.78
- Sema3g nFC: 1.72
- Sftpa1 log2 nFC: 0.70
- Sftpa1 nFC: 1.62
- Sgip1 log2 nFC: 0.90
- Sgip1 nFC: 1.87
- Sgms1 log2 nFC: 0.71
- Sgms1 nFC: 1.63
- Slc2a4rg-ps log2 nFC: 0.85
- Slc2a4rg-ps nFC: 1.80
- Slc7a10 log2 nFC: 0.97
- Slc7a10 nFC: 1.96
- Slc16a11 log2 nFC: 0.79
- Slc16a11 nFC: 1.73
- Slc43a3 log2 nFC: 0.73
- Slc43a3 nFC: 1.66
- Slit3 log2 nFC: 1.02
- Slit3 nFC: 2.03
- Snora21 log2 nFC: 0.75
- Snora21 nFC: 1.68
- Sntb1 log2 nFC: 0.72
- Sntb1 nFC: 1.64
- Sorbs1 log2 nFC: 0.70
- Sorbs1 nFC: 1.62
- Sorbs3 log2 nFC: 0.80
- Sorbs3 nFC: 1.74
- Srcin1 log2 nFC: 0.91
- Srcin1 nFC: 1.87
- Stard8 log2 nFC: 0.69
- Stard8 nFC: 1.61
- Syne1 log2 nFC: 0.70
- Syne1 nFC: 1.62
